Assay results from patent EP3505512B1, “QUATERNARY NICOTINAMIDE DERVIATIVES AS PRECURSORS FOR RELEASE OF MNA” (UNIWERSYTET JAGIELLONSKI, priority 2017, dated 2019).

Experiments:
[1] = esterase dependent hydrolysis: incubation in fresh rat plasma, LC-MS/MS determination of parent compound, MNAF and MNA; details: for release of intermediate compound MNAF / rate of hydrolysis (property depending on structure): group property, matrix not given; for hydrolysis of parent compound during plasma incubation: fresh rat plasma, 37°C, incubation 120 min
[2] = hydrolytic stability in solution: incubation in PBS buffer, LC-MS/MS determination of parent compound, MNAF and MNA; assay type: physicochemical; details: 37°C, incubation 120 min
Protocol: The invention also concerns the method of releasing N1-methylnicotinamide (MNA), which is characterized by the following steps: pyridine salts derivatives, as defined above, are incubated in a shaking water bath at 37°C for 120 minutes, then samples are taken 1, 5, 15, 30, 60, 90 and 120 minutes after the start of incubation, by taking 50 µL of a sample to which 500 µL of acetonitrile cooled to -20°C was added to interrupt the hydrolysis reaction, then samples were cooled for 20 minutes at 4°C for protein precipitation, and then centrifuged under the following conditions: 4°C, 15,000 x rpm, 15 min, and the supernatant was transferred to separate chromatographic tubes and 5 µL was applied to the chromatographic column. Preferably, when MNA release is studied in PBS buffer - testing hydrolytic stability in solution and/or in rat plasma - additionally testing plasma esterase-dependent hydrolysis.
For that purpose, the studied compounds were incubated: (1) in PBS buffer - testing hydrolytic stability in solution; (2) in rat plasma - testing additionally esterase dependent hydrolysis. Incubation was carried out in a shaking water bath at 37°C. The studied compounds were added to the prepared biological matrix and incubated for 120 min. Samples were collected 1, 5, 15, 30, 60, 90 and 120 min. after the beginning of incubation, by taking 50 µL of a sample to which 500 µL of acetonitrile cooled to -20°C was added to stop the hydrolysis reaction. The samples were cooled for 20 minutes at 4°C in order to precipitate proteins and then centrifuged under the following conditions: 4°C, 15,000 x rpm, 15 min. The supernatant was transferred to separate chromatographic tubes and 5 µL was injected onto chromatographic column.
The analytical system used for determination of MNA and MNAF concentrations consisted of the UltiMate 3000 liquid chromatograph (Dionex, Thermo Scientific) and the Quantum Ultra TSQ mass spectrometer (Thermo Scientific). For chromatographic separation the Aquasil C18 (4.6 x 150 mm, 5 µm, Thermo Scientific) analytical column was used with isocratic mobile phase, a mixture of 0.1% formic acid in acetonitrile and 5mM ammonium formate (80: 20, v/v)) elution ,at the flow rate of 0,8 mL/min. The detection was performed in the selected reaction monitoring (SRM) mode in positive ionization, monitoring the following ion transitions: m/z 137 → 94 (CE=19V) for MNA, m/z 167 → 137 (CE10) for MNAF, m/z 140 → 97 (CE=19V) for MNA-d3 used as internal standard. The parameters of the ion source were as follows: gas pressure 30 psi (sheath gas) and 10 psi (auxiliary gas), ion spray voltage 4500V, H-ESI ison sourse vaporizer temperature 300°C, capillary temperature 300°C, pressure in the collision chamber 1.5 mTorr (argon).

Substance	release of intermediate compound MNAF / rate of hydrolysis (property depending on structure) [1]	hydrolysis of parent compound during plasma incubation [1]	stability in PBS buffer [2]	changes in concentrations of parent compound during incubation in PBS solution [2]
3-({[(3,4,5-trimethoxybenzoyl)oxy]methyl}carbamoyl)-1 methylpyridinium iodide [C-2942]	quick release of an intermediate compound MNAF			
3-[(2,2-dimethylpropionyl oxymethyl)carbamoyl]-1-methylpyridinium iodide [C-2647]	quick release of an intermediate compound MNAF			
3-[(adamanthan-1-carbonyl oxymethyl)carbamoyl]-1-methylpyridinium iodide [C-2808]	hydrolyse very slowly	slow and slight hydrolysis	high stability	No changes in concentrations
3-(isobutanoyloxymethylcarbamoyl)-1-methylpyridinium iodide [C-2649]	quick release of an intermediate compound MNAF			
3-(methoxymethylcarbamoyl)-1-methylpyridinium iodide [C-2823]	hydrolyse very slowly	slow and slight hydrolysis	high stability	No changes in concentrations
3-(benzoyloxymethylcarbamoyl)-1-methylpyridinium iodide [C-2648]	quick release of an intermediate compound MNAF			
3-(Acetoxymethylcarbamoyl)-1-methylpyridinium iodide [C-2578]	quick release of an intermediate compound MNAF			
iodide [(1-methylpyridine-1-ium-3-carbonyl)amino] methyl-1-methylcyclohexanecarboxylate [C-2959]	quick release of an intermediate compound MNAF			
